Here are results for 36 compounds from ChEMBL document CHEMBL1134540, “ElogD(oct): a tool for lipophilicity determination in drug discovery. 2. Basic and neutral compounds” (J Med Chem, 2001).

This data set in a line: Partition coefficient (logD7.4). To be noted: octanol/water, pH 7.4.
In the case of `CSc1ncnc2c1ncn2[C@@H]1O[C@H](CO)[C@@H](O)[C@H]1O`, the log distribution coefficient (logD) (usually the decadic logarithm of the distribution of all forms, ionised or not, between an organic phase and buffer at a given pH) is 0.09.

The compound `CCN(CC)CCNC(=O)c1cc(S(C)(=O)=O)ccc1OC` [TIAPRIDE] displayed a pH-dependent lipophilicity (logD) of -0.09. The result for `Oc1cc(Cl)cc(Cl)c1` reads 3.68. To `O=C(NCC1CCCCN1)c1cc(OCC(F)(F)F)ccc1OCC(F)(F)F` (stereo unspecified) [FLECAINIDE] belongs 0.97; to `COc1ccc2[nH]c([S+]([O-])Cc3ncc(C)c(OC)c3C)nc2c1` (stereo unspecified) [OMEPRAZOLE], 2.3; to `CSc1ccc2c(c1)N(CCC1CCCCN1C)c1ccccc1S2` (stereo unspecified) [THIORIDAZINE], 3.34.

The compound `COC1=CC(=O)C[C@@H](C)[C@]12Oc1c(Cl)c(OC)cc(OC)c1C2=O` [GRISEOFULVIN] showed a pH-dependent lipophilicity (logD) of 2.18.

Compound `COC(=O)[C@H]1[C@@H](OC(=O)c2ccccc2)C[C@@H]2CC[C@H]1N2C` [COCAINE] returned a logD of 1.05. The result for `CNS(=O)(=O)Cc1ccc2[nH]cc(CCN(C)C)c2c1` reads -1; that for `C[C@]12CC[C@H]3[C@@H](CCC4=CC(=O)CC[C@@]43C)[C@@H]1CC[C@@H]2O` [TESTOSTERONE], 3.29; that for `Nc1nc(N)c2nc(-c3ccccc3)c(N)nc2n1`, 1.21. To `NC(=O)N1c2ccccc2C=Cc2ccccc21` [CARBAMAZEPINE] belongs 2.19; to `NC(=O)N/N=C/c1ccc([N+](=O)[O-])o1` [NITROFURAZONE], 0.23.

On to `C=CCc1ccccc1OCC(O)CNC(C)C` (stereo unspecified) [ALPRENOLOL], for which the logD was found to be 0.97. With `CC(C)(C)NCC(O)c1cc(O)cc(O)c1` (stereo unspecified), the logD is -1.35. The result for `CC/C(=C(/CC)c1ccc(O)cc1)c1ccc(O)cc1` [DIETHYLSTILBESTROL] reads 5.07; that for `O=C1CN=C(c2ccccn2)c2cc(Br)ccc2N1` [BROMAZEPAM], 1.65. The compound `COc1ccc2c3c1O[C@H]1[C@@H](O)C=C[C@H]4[C@@H](C2)N(C)CC[C@@]341` [CODEINE] returned a logD of 0.23. `CC(=O)CCCCn1c(=O)c2c(ncn2C)n(C)c1=O` [PENTOXIFYLLINE]: the logD was found to be 0.29. To `CCCCNc1ccc(C(=O)OCCN(C)C)cc1` [TETRACAINE] belongs 2.29; to `CNC(=C[N+](=O)[O-])NCCSCc1csc(CN(C)C)n1` [NIZATIDINE], -0.52.

For `Clc1cccc(Cl)c1N=C1NCCN1` [CLONIDINE], the pH-dependent lipophilicity (logD) was 0.62. To `c1ccc2ncccc2c1` [QUINOLINE] belongs 2.03; to `CN1CCC[C@H]1c1cccnc1` [NICOTINE], 0.4; to `CN1C(=O)C(O)N=C(c2ccccc2Cl)c2cc(Cl)ccc21` (stereo unspecified) [LORMETAZEPAM], 2.72. To `Oc1ncnc2[nH]ncc12` [ALLOPURINOL] belongs -0.44; to `CN1CCN(CC(=O)N2c3ccccc3C(=O)Nc3cccnc32)CC1` [PIRENZEPINE], -0.61. `Brc1cnc2ccccc2c1` showed a logD of 3.03.

`CC(C)N(CCC(C(N)=O)(c1ccccc1)c1ccccn1)C(C)C` (stereo unspecified) [DISOPYRAMIDE] showed a logD of -0.66. To `CS(=O)(=O)c1ccc([C@@H](O)[C@@H](CO)NC(=O)C(Cl)Cl)cc1` [THIAMPHENICOL] belongs -0.27. To `c1ccc(-c2ccc(C(c3ccccc3)n3ccnc3)cc2)cc1` (stereo unspecified) [BIFONAZOLE] belongs 4.77; to `CNC(=C[N+](=O)[O-])NCCSCc1ccc(CN(C)C)o1` [RANITIDINE], -0.29; to `CN(C)CCC(c1ccc(Cl)cc1)c1ccccn1` (stereo unspecified) [CHLORPHENIRAMINE], 1.41. The result for `NS(=O)(=O)c1cc(C2(O)NC(=O)c3ccccc32)ccc1Cl` (stereo unspecified) [CHLORTHALIDONE] reads 1.11.

In the case of `O=[N+]([O-])c1ccc(/C=N/O)o1` [NIFUROXIME], the pH-dependent lipophilicity (logD) amounted to 1.28. The logD values of the last two compounds are within 0.2 log units of each other.

Take `CCOC(=O)C1=C(COCCN)NC(C)=C(C(=O)OC)C1c1ccccc1Cl` (stereo unspecified) [AMLODIPINE]: the logD stood at 1.66.
